Experimental data reported in publication PMC11200585, “Prospects for Prostate Cancer Chemotherapy: Cytotoxic Evaluation and Mechanistic Insights of Quinolinequinones with ADME/PK Profile” (Biomedicines, 2024).

Columns and labels:
[1] = In vivo bioavailability / pharmacokinetic study IV and PO; parameters: species or system male Sprague-Dawley rats; settings: rat; for AUC(0-inf) / AUC(0-t) / C0 / MRT last / Vd / clearance / half-life / Cmax / Tmax: male, Sprague-Dawley, whole blood; for Tmax: median
Description: Using the validated Phoenix® WinNonlin® 8.3 NCA tool Version 8 or higher (Certara L.P.), USA, pharmacokinetic parameters were computed. As appropriate, Cmax, Tmax, and exposures (AUCinfinity and AUClast) were calculated. Furthermore, pharmacokinetic characteristics such as distribution volume (Vd), […] (CL), elimination half-life (T1/2), and parenteral route like (C0) were evaluated. Using dose-normalized non-intravenous exposure versus dose-normalized intravenous exposure, oral bioavailability (F%) was computed (Table 5).
S2.2. In vivo Bioavailability Study of AQQ1 and AQQ2 in Male Sprague-Dawley Rats Sprague-Dawley rats (HyLasco Biotechnology (India) Pvt. Ltd., a subsidiary of Charles River from the US) of 8-12 weeks of age (at the time of treatment), weighing between 220 and 320 g, […]
Housing: Animals were housed in polysulfonate cages in a typical research laboratory environment at 25 ± 3°C and 50%-70% relative humidity with approximately 12 h light and dark cycles maintained with an enrichment device. During the study, the animals had access to a rat maintenance diet (Altromin Spezialfutter GmbH, Germany) and purified water (UV-treated, […]
Animal experiments were conducted in accordance with the guidelines of the Committee for the Purpose of Control and Supervision of Experiments on Animals (CPCSEA), Ministry of […], Government of India, and approved by the Institutional Animal Ethics Co m m i tt e e . […] AQQ1 a n d AQQ2 in NMP (10%) + PBS (pH 7.4) qs was administered intravenously at a dose of 1 mg/kg bw (10 mL/kg). AQQ1 and AQQ2 in NMP (10%) + Cremophor EL (5%) + PEG400 (30%) + PG (20%) + PBS (pH 7.4) qs was administered PO at a dose of 5 mg/kg bw (10 mL/kg). The animal weight on the day of dosing was used to calculate the required volume of the formulation and administered to the rats.
After dosing, blood samples (~0.250 mL) were collected from the jugular vein at the following time points: 0.083 (IV only), 0.25, 0.5, 1, 2, 4, 6, 8, and 24 h using a serial sampling design (equal volumes of heparinized saline were replaced after each sample collection). The samples were collected in pre-labeled microcentrifuge tubes containing K2EDTA (20 μL of 200 mM solution […]
per mL of blood) as an anticoagulant. The blood samples were stored at -60°C until bioanalysis using the fit-for-purpose LC-MS/MS method. Pharmacokinetic parameters were calculated using the non-compartmental analysis (NCA) tool of the validated Phoenix® WinNonlin® 8.3.
Group Treatment/Route Dose (mg/kg) Dose volume (mL/kg) Stregth

DU-145 cells [2] = test: Oxidative stress: intracellular ROS (DCFDA, flow cytometry); type: cell-based, human; settings: 1, 2.5, 5 µM, 24 h
Description: DU-145 cells were initially seeded at a density of 1 × 10^6 cells per well in 6-well plates. Cells were subjected to AQQ1 treatments as described earlier. After an incubation period, the cells were treated with varying concentrations of AQQ1 (1, 2.5, and 5 µM) for 24 h. ROS analysis was carried out using the DCFDA oxidation method according to Eruslanov and Kusmartsev with some modifications. For positive control, the cells were exposed to 100 µM H2O2 for 30 min. Then, the medium was discarded, 20 µM DCDFA (Sigma-Aldrich, USA) in culture medium was added to the wells, and plates were incubated for 15 min in the dark. The cells were analysed with NovoCyte (Agilent, Palo Alto, CA, USA) flow cytometry using NovoExpress version 1.6.2 software (Agilent, USA).

DU-145 cells [3] = test: Colony formation assay; type: cell-based, human; settings: 24 h treatment, 10 days growth
Description: DU-145 cells were seeded in 6-well plates at a density of 1000 cells/well and allowed to incubate overnight. Then, the cells were treated with varying concentrations of AQQ1 (1, 2.5, and 5 µM) along with negative control and 2.5 µM DOXO for 24 h. After a medium refreshment, the cells were allowed to grow for 10 days. After incubation, the colonies are fixed with cold methanol for 5 min and then stained with a 0.5% crystal violet solution (prepared in 10% methanol) for 20 min. The plates were allowed to air-dry and the colonies were counted manually.

DU-145 cells [4] = test: Scratch assay (cell migration); type: cell-based; settings: Homo sapiens, 24 h, read-out: DU-145 cell migration inhibited
Description: DU-145 cells were grown in 6-well plates until they reached confluence. A straight-line scratch was then carefully created in the cell layer using a sterile pipette tip. The medium was replaced to remove any detached cells. The cells were treated with varying concentrations of AQQ1 (1, 2.5, and 5 µM) along with negative control for 24 h and the cells were allowed to migrate into the denuded area. The brightfield images were taken under the microscope at 0 h and over 24 h. The extent of wound closure is quantified by measuring the change in the width of the scratch with Fiji Image J wound healing size macro [20].

M14 = test: NCI-60 one-dose screen (melanoma); type: cell-based, human; settings: 10 µM single dose, 48 h
CAKI-1 = test: NCI-60 one-dose screen (renal cancer); type: cell-based, human; settings: 10 µM single dose, 48 h
RXF 393 = test: NCI-60 one-dose screen (renal cancer); type: cell-based, human; settings: 10 µM single dose, 48 h

| SMILES | AUC(0-inf) ([1]; IV 1 mg/kg) | AUC(0-t) ([1]; IV 1 mg/kg) | C0 ([1]; IV 1 mg/kg) | MRT last ([1]; IV 1 mg/kg) | Vd ([1]; IV 1 mg/kg) | clearance ([1]; IV 1 mg/kg) | half-life ([1]; IV 1 mg/kg) | AUC(0-inf) ([1]; PO 5 mg/kg) | AUC(0-t) ([1]; PO 5 mg/kg) | Cmax ([1]; PO 5 mg/kg) | MRT last ([1]; PO 5 mg/kg) | half-life ([1]; PO 5 mg/kg) | Tmax ([1]; PO 5 mg/kg) | plasma clearance relative to normal hepatic blood flow of rats ([1]; IV 1 mg/kg) | further results |
| --- | --- | --- | --- | --- | --- | --- | --- | --- | --- | --- | --- | --- | --- | --- | --- |
| COc1ccccc1NC1=C(Cl)C(=O)c2nc(C)ccc2C1=O [AQQ1] | 115 ± 45.7 ng·h/mL | 77.5 ± 9.81 ng·h/mL | 90.8 ± 71.3 ng/mL | 3.77 ± 0.279 h | 90.3 ± 40 L/kg | 161 ± 62.9 mL/min/kg | 9.35 ± 8.75 h | 4000 ± 179 ng·h/mL | 3810 ± 111 ng·h/mL | 435 ± 18.1 ng/mL | 7.47 ± 0.367 h | 5.22 ± 0.843 h | 0.5 h | approximately 2.93 fold | intracellular ROS levels (DU-145 cells [2]): significantly increased ROS levels dose-dependently; colony-forming ability (DU-145 cells [3]): significantly reduced the colony-forming ability; inhibition at 1 µM (DU-145 cells [4]; 1 μM): 13.4%; inhibition at 2.5 µM (DU-145 cells [4]; 2.5 μM): 23.7%; inhibition at 5 µM (DU-145 cells [4]; 5 μM): 49.8% |
| COc1cc(NC2=C(Cl)C(=O)c3nc(C)ccc3C2=O)cc(OC)c1 [AQQ5] | – | – | – | – | – | – | – | – | – | – | – | – | – | – | GP (growth percentage) (M14): −95.99%; GP (growth percentage) (CAKI-1): −96.53%; GP (growth percentage) (RXF 393): −97.24% |
| CCOc1ccccc1NC1=C(Cl)C(=O)c2nc(C)ccc2C1=O [AQQ2] | 110 ± 18.1 ng·h/mL | 77 ± 21 ng·h/mL | 23.2 ± 12.8 ng/mL | 6.84 ± 1.84 h | 147 ± 9.71 L/kg | 154 ± 26.9 mL/min/kg | 12.8 ± 2.95 h | 2370 ± 375 ng·h/mL | 2300 ± 416 ng·h/mL | 282 ± 79.4 ng/mL | 6.61 ± 0.787 h | 4.72 ± 1.16 h | 1 h | approximately 2.8 fold | volume of distribution relative to 0.7 L/kg total body fluids ([1]; IV 1 mg/kg): approximately 210 fold |
